Measurements as given in patent US7414142B2 (Wyeth, priority 2005, dated 2008).
Where “and” joins values, the source holds several entries; their conditions need not be identical. Identical values can stand only once. One block for each compound: values may come before it.

Legend:
[1] = tested on: rat uterine decidualization; test: Rat decidualization assay; format: in vivo; conditions: for Estimated average EC50: s.c., average of dose-response curves, rat decidual response
Description: C. […] The animals are treated once daily for seven days.
Uteri are removed and trimmed of fat.
Decidual response: [(D−C)/C]×100%

[2] = molecular target: T1, progesterone receptor (PR) (Homo sapiens, UniProt P06401); test: T47D cell alkaline phosphatase assay; format: cell-based; conditions: for IC50: read-out: Alk. Phos. IC50; for inhibition at 3 µM: T47D, read-out: Alk. Phos. % inh @ 3 μM
T1 construct: endogenous in cells; host or cells: T47D cells
T1 sequence (P06401 1-933): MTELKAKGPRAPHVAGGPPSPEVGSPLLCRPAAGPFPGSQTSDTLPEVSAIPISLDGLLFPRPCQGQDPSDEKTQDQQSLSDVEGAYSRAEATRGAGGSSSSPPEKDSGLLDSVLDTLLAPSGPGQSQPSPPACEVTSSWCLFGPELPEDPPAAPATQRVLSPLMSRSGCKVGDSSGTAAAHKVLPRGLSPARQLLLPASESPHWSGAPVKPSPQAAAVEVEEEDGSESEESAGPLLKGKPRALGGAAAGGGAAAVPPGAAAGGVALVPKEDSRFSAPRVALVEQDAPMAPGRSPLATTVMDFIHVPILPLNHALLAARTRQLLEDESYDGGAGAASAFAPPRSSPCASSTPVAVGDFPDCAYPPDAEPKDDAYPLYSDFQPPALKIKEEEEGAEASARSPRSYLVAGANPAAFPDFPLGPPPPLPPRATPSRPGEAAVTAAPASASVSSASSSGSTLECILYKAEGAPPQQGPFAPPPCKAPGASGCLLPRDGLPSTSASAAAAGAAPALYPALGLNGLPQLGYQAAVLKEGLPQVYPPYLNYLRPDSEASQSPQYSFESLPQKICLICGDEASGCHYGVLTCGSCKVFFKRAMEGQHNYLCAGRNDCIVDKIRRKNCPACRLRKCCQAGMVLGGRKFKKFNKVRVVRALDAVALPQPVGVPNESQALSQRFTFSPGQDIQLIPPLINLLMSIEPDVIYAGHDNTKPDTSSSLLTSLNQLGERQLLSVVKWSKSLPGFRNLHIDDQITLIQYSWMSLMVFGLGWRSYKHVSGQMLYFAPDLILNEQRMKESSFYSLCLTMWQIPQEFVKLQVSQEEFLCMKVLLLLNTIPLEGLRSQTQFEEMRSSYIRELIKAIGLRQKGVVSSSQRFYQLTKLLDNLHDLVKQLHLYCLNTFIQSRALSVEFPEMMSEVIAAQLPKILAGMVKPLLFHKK
Description: (i) Purpose: To identify progestins or antiprogestins by determining a compound's effect on alkaline phosphatase activity in T47D cells.
A. Reagents • (i) Culture Medium: • DMEM:F12 (1:1) (GIBCO, BRL) supplemented with 5% (v/v) charcoal stripped fetal bovine serum (not heat-inactivated), 100U/mL penicillin, […] streptomycin, and 2 mM the GlutaMax™ reagent (GIBCO, BRL). • (ii) Alkaline phosphatase assay buffer: • I. 0.1 M Tris-HCl, pH 9.8, containing 0.2% the Triton™ X-100 reagent; • II. 0.1 M Tris-HCl, pH 9.8 containing 4 mM p-nitrophenyl phosphate (Sigma).
B. Cell Culture and Treatment • Frozen T47D cells were thawed in a 37° C. water bath and diluted to 280,000 cells/mL in culture medium. To each well in a 96-well plate (Falcon, Becton Dickinson Labware), 180 ? L of diluted cell suspension was added. Twenty ? L of reference or test compounds diluted in the culture medium was then added to each well. […] The cells were incubated at 37° C. in a 5% CO2/humidified atmosphere for 24 hours. • Note: For high throughput screening, one concentration of each compound was tested at 0.3 mg/mL. Based on an average molecular weight of 300 g/mol for the compounds in the library, the concentration was approximately 1 mM.
C. Alkaline Phosphatase Enzyme Assay • At the end of treatment, the medium was removed from the plate. Fifty ? L of assay buffer I was added to each well. The plates were shaken in a titer plate shaker for 15 minutes. Then 150 ? L of assay buffer II was added to each well.
Square root-transformed data were used for analysis of variance and nonlinear dose response curve fitting for both agonist and antagonist modes. Huber weighting was used to downweight the effects of outliers. EC50 or IC50 values were calculated from the retransformed values. JMP software (SAS Institute, Inc.) was used for both one-way analysis of variance and non-linear dose response analyses in both single dose and dose response studies.

T47D cells = test: T47D cell proliferation assay (BrdU incorporation); format: cell-based
Description: (a) Objective: Determination of progestational and antiprogestational potency by using a cell proliferation assay in T47D cells. A compound's effect on DNA synthesis in T47D cells is measured.
A. Reagents • (i) Growth medium: DMEM:F12 (1:1) (GIBCO, BRL) supplemented with 10% (v/v) fetal bovine serum (not heat-inactivated), 100U/mL penicillin, […] streptomycin, and 2 mM GlutaMax™ media (GIBCO, BRL). • (ii) Treatment medium: Minimum Essential Medium (MEM) (#51200-038GIBCO, BRL) phenol red-free supplemented with 0.5% charcoal stripped fetal bovine serum, 100U/mL penicillin, […] streptomycin, and 2 mM GlutaMax™ media (GIBCO, BRL).
B. Cell Culture • Stock T47 D cells are maintained in growth medium. […]
C. Cell Proliferation Assay • At the end of BrdU labeling, the medium is removed and BrdU incorporation is measured using a cell proliferation ELISA kit (#RPN 250, Amersham Life Science) according to manufacturer's instructions. […] L of 1 M sulfuric acid is added to each well to stop color reaction and optical density is read in a plate reader at 450 nm within 5 minutes.
D. Analysis of Results • Square root-transformed data are used for analysis of variance and nonlinear dose response curve fitting for both agonist and antagonist modes. […] EC50 or IC50 values are calculated from the retransformed values. […]

Estimated average EC50 [1]: 0.10 mg/kg
SMILES: C#C[C@]1(O)CC[C@H]2[C@@H]3CCC4=CC(=O)CC[C@@H]4[C@H]3C(=C)C[C@@]21CC [3-Ketodesogestrel]

IC50 [2]: 65 nM
SMILES: CC1C/C(=N\O)c2ccc(-c3ccc(C#N)n3C)cc21 (stereo not shown) [Example 3, 5-[(1E)-1-(hydroxyimino)-3-methyl-2,3-dihydro-1H-inden-5-yl]-1-methyl-1H-pyrrole-2-carbonitrile]

IC50 [2]: ~3000 nM
SMILES: N#Cc1cccc(-c2ccc3c(c2)CC/C3=N\O)c1 [Example 6, 3-[(1E)-1-(hydroxyimino)-2,3-dihydro-1H-inden-5-yl]benzonitrile]

IC50 [2]: ~1000 nM
SMILES: N#Cc1ccc(-c2ccc3c(c2)CC/C3=N\O)cc1 [Example 7, 4-[(1E)-1-(hydroxyimino)-2,3-dihydro-1H-inden-5-yl]benzonitrile]

inhibition at 3 µM [2]: 68%
SMILES: Cc1ccc(-c2ccc3c(c2)C(C)(C)C/C3=N\O)cc1 [Example 34, (1E)-3,3-dimethyl-5-(4-methylphenyl)indan-1-one oxime]

inhibition at 3 µM [2]: 42%
SMILES: COc1cccc(-c2ccc3c(c2)C(C)(C)C/C3=N\O)c1 [Example 38, (1E)-5-(3-methoxyphenyl)-3,3-dimethylindan-1-one oxime]

inhibition at 3 µM [2]: 62%
SMILES: CC1(C)C/C(=N\O)c2ccc(-c3ccccc3Cl)cc21 [Example 40, (1E)-5-(2-chlorophenyl)-3,3-dimethylindan-1-one oxime]

IC50 [2]: 456 nM
SMILES: CC1(C)C/C(=N\O)c2ccc(-c3ccc(Cl)c(Cl)c3)cc21 [Example 41, (1E)-5-(3,4-dichlorophenyl)-3,3-dimethylindan-1-one oxime]

inhibition at 3 µM [2]: 100%
SMILES: CC1(C)C/C(=N\O)c2ccc(-c3cccc(Cl)c3Cl)cc21 [Example 42, (1E)-5-(2,3-dichlorophenyl)-3,3-dimethylindan-1-one oxime]

IC50 (T47D cells; half-maximal decrease in 0.1 trimegestone induced BrdU incorporation in T47D cells, individual Exp, read-out: EC50 (Estimated IC50)): 0.016 nM and 0.018 nM
Estimated IC50 ([1]; p.o., half-maximal decrease in EC50 progesterone induced decidual response, individual Exp): 0.21 mg/kg and 0.14 mg/kg
SMILES: CC#C[C@]1(O)CC[C@H]2[C@@H]3CCC4=CC(=O)CCC4=C3[C@@H](c3ccc(N(C)C)cc3)C[C@@]21C [RU486]

EC50 (T47D cells; half-maximal increase in BrdU incorporation in T47D cells, individual studies (Exp), read-out: Estimated EC50): 0.017 nM and 0.014 nM and 0.019 nM
SMILES: C[C@H](O)C(=O)[C@@]1(C)CC[C@H]2[C@@H]3CCC4=CC(=O)CCC4=C3CC[C@@]21C [Trimegestone]

More lines, now with the values behind:

SMILES: Cn1c(C#N)ccc1-c1ccc2c(c1)CCC/C2=N\O [Example 15, 5-[(5E)-5-(hydroxyimino)-5,6,7,8-tetrahydronaphthalen-2-yl]-1-methyl-1H-pyrrole-2-carbonitrile]
IC50 [2]: 32.6 nM

SMILES: CC1(C)C/C(=N\O)c2ccc(-c3ccc(Cl)cc3)cc21 [Example 33, (1E)-5-(4-chlorophenyl)-3,3-dimethylindan-1-one oxime]
inhibition at 3 µM [2]: 100%

SMILES: COc1ccc(-c2ccc3c(c2)C(C)(C)C/C3=N\O)cc1 [Example 35, (1E)-5-(4-methoxyphenyl)-3,3-dimethylindan-1-one oxime]
inhibition at 3 µM [2]: 63%

SMILES: CC1(C)C/C(=N\O)c2ccc(-c3cccc(Cl)c3)cc21 [Example 36, (1E)-5-(3-chlorophenyl)-3,3-dimethylindan-1-one oxime]
inhibition at 3 µM [2]: 70%

SMILES: Cc1cccc(-c2ccc3c(c2)C(C)(C)C/C3=N\O)c1 [Example 37, (1E)-3,3-dimethyl-5-(3-methylphenyl)indan-1-one oxime]
inhibition at 3 µM [2]: 65%

SMILES: CC1(C)C/C(=N\O)c2ccc(-c3cc(Cl)cc(Cl)c3)cc21 [Example 39, (1E)-5-(3,5-dichlorophenyl)-3,3-dimethylindan-1-one oxime]
inhibition at 3 µM [2]: 30%

SMILES: C#C[C@]1(O)CC[C@H]2[C@@H]3CCC4=CC(=O)CC[C@@H]4[C@H]3CC[C@@]21CC [Levonorgestrel]
Estimated average EC50 [1]: 0.10 mg/kg
